Assay results: paper PMC7904636 (International journal of pharmaceutics, 2021)

Key:
A549 cells = conditions: toxic at this concentration or higher, ref Zhu et al., 2020; cited from earlier work
[1] = Solubility in aqueous medium; type: physicochemical; conditions: precipitation observed when DMSO solution was diluted with HBSS

Solubility in aqueous medium [1]: very low solubility
SMILES: CC(C)(C)c1cc(C(C)(C)C)c(NC(=O)c2c[nH]c3ccccc3c2=O)cc1O [ivacaftor, Ivacaftor]
Concentration toxic to A549 cells (A549 cells): ≥ 8000 ng/mL
